Here are results for 8 molecules from US20200253929A1, “TREATMENT OF EPILEPSY” (priority 2017, published 2020).

“Also recorded” adds a separate entry of the source.

Data set [1] has as its system zebrafish larvae. The data set can be described thus: Zebrafish toxicity evaluation (maximum tolerated concentration). It is filed as in vivo, Danio rerio. The note with it: up to 18 hours exposure, 100 μg/mL used where no MTC was reached. The procedure:
(§1) In case no MTC was reached, 100 μg/mL was used as the test concentration. In line with studies previously reported [Baraban et al. (2005) Neurosci 131, 759-768; Afrikanova et al. (2013) PLoS One 8, e54166], addition of the GABAA-receptor antagonist PTZ to the swimming water of 7 days post-fertilization (dpf) zebrafish larvae strongly elevated larval locomotion (p≤0.001) (FIGS. 2 and 3) as a result of induced seizures (or seizure-like behavior) that were recognized as typical high-speed swimming, whirlpool-like circling, clonus-like seizures, and loss of posture, as previously described in Baraban et al cited above.
Maximum tolerated concentration (MTC) was determined prior to further experiments and used as the highest test concentration. MTC was investigated by exposing 12 larvae of 6 days post-fertilization (dpf) to a range of concentrations in a 100 μL volume during 18 hours. The following parameters were investigated after 2 and 18 hours of exposure: touch response, morphology, posture, edema, signs of necrosis, swim bladder, and heartbeat. […] In case MTC was not reached, 100 μg/mL was used as the highest test concentration.

The subject of data set [2] is PTZ-induced seizures in zebrafish larvae. The data set can be described thus: Zebrafish PTZ seizure model, behavioral analysis. Type of data set: in vivo, Danio rerio. The note with it: at MTC, 2 or 18 hours incubation (not specified per compound). The procedure: To investigate whether the isolated compounds display antiseizure activity, they were tested in the zebrafish PTZ seizure model after both an acute (2 hours) and chronic (18 hours) incubation time at their maximum tolerated concentration (MTC) (Table 1, FIG. 1).
as §1
Experimental procedure was described in Afrikanova et al.(2013) PLoS One 8, e54166 and Orellana-Paucar et al. (2012) Epilepsy Behav 24, 14-22. In brief, a single 7 dpf larva (in case of 2 hours incubation) or 6 dpf larva (in case of 18 hours incubation) was placed in each well of a 96-well plate and treated with either VHC (1% DMSO) or compound (1% DMSO) in a 100 μL volume. Larvae were incubated in dark for 2 or 18 hours at 28° C., whereafter 100 μL of either VHC (embryo medium) or 40 mM PTZ (dissolved in embryo medium, 20 mM working concentration) was added to each well. Next, within 5 min the 96-well plate was placed in an automated tracking device (ZebraBox Viewpoint, France) and larval behavior was video recorded for 30 min. The complete procedure was performed in dark conditions using infrared light. Total locomotor activity was recorded by ZebraLab software (Viewpoint, France) and expressed in actinteg units, which is the sum of pixel changes detected during the defined time interval (5 min). Larval behavior was depicted as mean actinteg units/5 min during the 30 min recording period and over 5 min time intervals. Data are expressed as mean±SD or as mean ±SEM when the means of independent experiments were pooled.

In data set [3] the test system is NMRI mice. The data set can be described thus: Mouse 6-Hz (44 mA) psychomotor seizure model. Type of data set: in vivo. The text has this:
Although the zebrafish model has a high degree of genetic, physiological and pharmacological conservation^13, it is more distinct from humans than mammals. Therefore, we were interested to see if the observed antiseizure properties of azaspirofuran A and pseurotin A2 would translate to a rodent model. The mouse 6-Hz (44 mA) psychomotor seizure model was chosen, because it can detect compounds with novel antiseizure mechanisms and with potential against drug-resistant seizures [Barton et al. (2001) Epilepsy Res 47, 217-227; Wilcox et al. (2013) Epilepsia 54 S4, 24-34]. In this model drug-resistant focal impaired awareness seizures [Fisher et al. (2017) Epilepsia 58, 531-542], previously referred to as complex partial or psychomotor seizures [Holcomb and Dean (2011) Psychomotor Seizures, In Encyclopedia of Child Behavior and Development (Goldstein, S., and Naglieri, J. A., Eds.), pp 1191-1192, Springer US, Boston, Mass.], are induced by low frequency, long duration corneal electrical stimulation (6 Hz, 0.2 ms rectangular pulse width, 3 s duration, 44 mA) and are characterized by stun, twitching of the vibrissae, forelimb clonus, and Straub tail. […] Stimulated mice with a seizure duration shorter than 27 seconds were thus considered to be protected. […] Besides, this study provides another example of the translation of results from zebrafish to rodent seizure models.
Experimental procedure was described in Copmans et al. (2018) Neurochem. Int. 112, 124-133. before Buenafe et al. cited above; Orellana-Paucar cited above. In brief, NMRI mice (average weight 28 g, range 23-32 g) were randomly divided into control and treatment groups (n=5-10). 50 μL (injection volume was adjusted to the individual weight) of VHC (PEG200:DMSO:water; 0.25:0.25:0.5) or treatment (an ASD or test compound dissolved in VHC) was i.p. injected in mice and after 30 or 120 (in case of phenytoin, as reported by Barton et al. cited above) min psychomotor seizures were induced by low frequency, long duration corneal electrical stimulation (6 Hz, 0.2 ms rectangular pulse width, 3 s duration, 44 mA) using an ECT Unit 5780 (Ugo Basile, Comerio, Italy). Mice were manually restrained and a drop of ocular anesthetic (0.5% lidocaine) was applied to the corneas before stimulation. Following electrical current stimulation, the mouse was released in a transparent cage for behavioral observation, which was video-recorded. […] In addition, facial and mouth jerking as well as head nodding were observed occasionally. Mice displaying normal exploratory and locomotion behavior within a time period of 26 seconds were considered to be protected against the induced psychomotor seizures. Seizure durations were measured during the experiment by experienced researchers, familiar with the different seizure behaviors. In addition, seizure durations were determined by blinded video analysis to confirm or correct the initial observations. Data are expressed as mean±SD.

Data set [4] concerns PTZ-induced epileptiform brain activity in zebrafish larvae. Description: Zebrafish PTZ seizure model, local field potential recordings (electrophysiology). Type of data set: in vivo, Danio rerio. The note with it: vs VHC+PTZ. From the text:
To determine whether azaspirofuran A and pseurotin A2 can ameliorate the PTZ-induced hyperexcitable state of the brain that is characterized by epileptiform discharges, local field potential (LFP) recordings were non-invasively measured from the midbrain (optic tectum) of zebrafish larvae [Zdebik et al. (2013) PLoS One 8, e79765; Britton et al. (2016) In Electroencephalography (EEG): An Introductory Text and Atlas of Normal and Abnormal Findings in Adults, Children, and Infants (St. Louis and Frey, Eds.), Chicago]. To that end larvae were treated with either VHC or test compound (MTC and optimal incubation time were used) followed by a 15 min during exposure to PTZ or VHC prior to the electrophysiology measurements (FIG. 4). […] Thus, both compounds not only ameliorate PTZ-induced seizures but are likely to do so by lowering the PTZ-induced hyperexcitable state of the brain.
Experimental procedure was described before [Zdebik et al. (2013) PLoS One 8, e79765; Sourbron et al. (2017) Front. Pharmac. 8, 191; Copmans et al. (2018) Neurochem. Int. 112, 124-133.]. Non-invasive LFP recordings were measured from the midbrain (optic tectum) of 7 dpf zebrafish larvae pre-incubated with VHC only, PTZ only, compound and VHC, or compound and PTZ. Larvae were incubated for approximately 2 or 18 hours with VHC (1% DMSO) or compound (1% DMSO) in a 100 μL volume. After incubation, 100 μL of VHC (embryo medium) or 40 mM PTZ (dissolved in embryo medium, 20 mM working concentration) was added to the well for 15 min prior to recording. These steps occurred at 28° C., while further manipulation and electrophysiological recordings occurred at room temperature (21° C.). The larva was embedded in 2% low melting point agarose (Invitrogen) and the signal electrode (an electrode inside a soda-glass pipet (1412227, Hilgenberg) pulled with a DMZ Universal Puller (Zeitz, Germany), diameter±20 microns, containing artificial cerebrospinal fluid (ACSF: 124 mM NaCl, 10 mM glucose, 2 mM KCl, 2 mM MgSO4, 2 mM CaCl2, 1.25 mM KH2PO4, and 26 mM NaHCO3, 300-310 mOsmols)) was positioned on the skin covering the optic tectum. A differential extracellular amplifier (DAGAN, USA) amplified the voltage difference between the signal (measured by the signal electrode) and the reference electrode. The differential signal was band pass filtered at 0.3-300 Hz and digitized at 2 kHz via a PCI-6251 interface (National instruments, UK) using WinEDR (John Dempster, University of Strathclyde, UK). A grounding electrode grounded the electrical system. All electrodes were connected with ACSF. Each recording lasted 600 seconds. Manual analysis was completed by quantification of the number, cumulative duration, and mean duration of epileptiform-like events with Clampfit 10.2 software (Molecular Devices Corporation, USA). An electrical discharge was considered epileptiform if it was a poly-spiking event comprising at least 3 spikes with a minimum amplitude of three times the baseline amplitude and a duration of at least 100 milliseconds. Data are expressed as mean±SD for the number and cumulative duration of epileptiform events and as mean±SEM for the mean duration of events.

The mark [5] stands for this setting: MTC and optimal incubation time, 10 min recording.

Consider 11-O-methylpseurotin A, for which the “MTC (maximum tolerated concentration)” value in data set [1] is 100 µg/mL. The entries for the “PTZ-induced seizures (seizure-like behavior)” value (“PTZ-induced seizures” for short) in data set [2] and in data set [2] (listed as 11-Omethylpseurotin A) were “less pronounce reduction in PTZ-induced seizures” and “not active”, respectively.
In turn, `CCCC(CCC)C(=O)O` [valproate, reference compound] returned a mean seizure duration in data set [3] (300 mg/kg i.p., 30 min before electrical stimulation) of 4 s.
`CC/C=C\[C@H](O)[C@H](O)C1=C(C)C(=O)[C@]2(O1)C(=O)N[C@](O)(C(=O)c1ccccc1)[C@@H]2O` [pseurotin F1]: in data set [1], the “MTC (maximum tolerated concentration)” value was determined as 50 µg/mL. For the same molecule, the “PTZ-induced seizures” value in data set [2] is on record as “less pronounce reduction in PTZ-induced seizures”.
Take `CC/C=C\[C@H](O)[C@H](O)C1=C(C)C(=O)[C@]2(O1)C(=O)N[C@@](OC)(C(=O)c1ccccc1)[C@@H]2O` [pseurotin A]: the “mean duration of epileptiform events” value in data set [4] (100 μg/mL, 18 hours) is recorded as “significantly lower the mean duration”. In addition, in data set [4] (setting [5]), the “cumulative duration of epileptiform events” value is “non-significantly lower” and the “number of epileptiform events” value is given as “non-significantly lower”. Also, in data set [1], the “MTC (maximum tolerated concentration)” value amounted to 100 µg/mL. Besides, in data set [2], the “PTZ-induced seizures” value was “not active”.
As for `O=C1NC(=O)C(c2ccccc2)(c2ccccc2)N1` [phenytoin, reference compound], the response of seizures result in data set [3] (10 mg/kg i.p., 120 min before electrical stimulation) is listed as “limited non-significant response”.
In the case of `CCc1ccc(C2=C(C)C(=O)[C@]3(O2)C(=O)N[C@@](O)(C(=O)c2ccccc2)[C@@H]3O)o1` [azaspirofuran B], the “MTC (maximum tolerated concentration)” value in data set [1] was 12.5 µg/mL.
Take `CC/C=C\C(OC(=O)c1ccccc1N)C(O)C1=C(C)C(=O)C2(O1)C(=O)NC(OC)(C(=O)c1ccccc1)C2O` (centres unmarked) [11-anthranilyl-Pseurotin A]: the “MTC (maximum tolerated concentration)” value in data set [1] was 100 µg/mL. Moreover, in data set [2], the “PTZ-induced seizures” value is on record as “less pronounce reduction in PTZ-induced seizures”.
On the same counts, the results for `CCC(O)C=C[C@H](O)C1=C(C)C(=O)[C@]2(O1)C(=O)N[C@@](OC)(C(=O)c1ccccc1)[C@@H]2O` (some centres unmarked) [pseurotin D] are 100 µg/mL and “less pronounce reduction in PTZ-induced seizures; also recorded: not active”.
